Key:
[1] = system: rat brain homogenates; conditions: cited from earlier work
[2] = system: Aquaporin 3; conditions: skin substitute EpiDermFT; cited from earlier work
[3] = system: E-cadherin; conditions: skin substitute EpiDermFT; cited from earlier work
[4] = system: elastase; conditions: relative to retinol; cited from earlier work
[5] = system: collagenase; conditions: cited from earlier work
[6] = system: Epiderm human skin model; conditions: pH 7.4
Description: The irritant potential of the extract was evaluated in vitro, by the colorimetric method (MTT), using the reconstructed epidermis model "EpiDerm® (MatTek Corporation).
In order to determine the safety of birch extract in cosmetics, a method was used to determine the irritant potential using the Epiderm human skin model, which contains a multilayered differentiated epidermis. In this method, the exposure time at which a 50% reduction in the number of viable cells (ET50) occurs is assessed. This number is assessed by measuring the reduction of MTT - 3-(4,5-dimethylthiaz-2-yl)-2-5-diphenyltetrazolium bromide). Formazan, which is blue-violet in colour, is formed as a result of mitochondrial metabolism. Formazan formation allows assessment of the number of cells that have been damaged. A chemical is classified as an irritant if the cell survival rate relative to a negative sample (containing neutral solvent) is below 50%.
The test consisted of applying an appropriate amount of a solution of the test compound to the surface of the epidermis model. Birch extract solutions of 0.25 per cent and 0.5 per cent by weight were prepared, corresponding to the content of this active ingredient in cosmetic preparations. […]

**Q.** For C=C[C@@](C)(/C=C/c1ccc(OC)cc1)CCC=C(C)C [O-methylbakuchiol], which lipid peroxidation [1] is on record?
**A.** Its lipid peroxidation is “inhibited”.

**Q.** Which results are given for C=C[C@@](C)(/C=C/c1ccc(O)cc1)CCC=C(C)C [Bakuchiol]?
**A.** AQP3 gene expression [2]: 4.3; CDH1 gene expression [3]: 21.6; inhibits elastase, compared with retinol [4]: almost nine times more strongly than retinol; inhibits collagenase, effectiveness [5]: 50%

**Q.** Which “Relative cell viability [%]” value [6] does the source give for CCCCCCCCCCCCOS(=O)(=O)[O-].[Na+] [SLS] here?
**A.** Its value is 6.03%.

**Q.** For CC1=C(/C=C/C(C)=C/C=C/C(C)=C/CO)C(C)(C)CCC1 [Retinol], which AQP3 gene expression [2] is on record?
**A.** The AQP3 gene expression was 3.5.

**Q.** And the CDH1 gene expression [3]?
**A.** Its CDH1 gene expression is 9.4.

**Q.** What about the “inhibits collagenase, effectiveness” value [5] of the same compound?
**A.** The value was “not affected at all”.
